Reference: ChEMBL document CHEMBL1201862, “PubChem BioAssay data set” (2004)
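Each compound was tested at five concentrations against cells in 96-well plates for 48 hours. Here, GI50 denotes the concentration required for 50% inhibition of growth.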 Activity calls are given as the source filed them. Cut-off read from the data, not from the text of the source: active = GI50 up to about 1.1 µM and inactive = higher.

Experiments:
Assay in all cases: inhibition of tumour cell growth, NCI panel, 48 h
KM12 = system: KM12
SNB-19 = system: SNB-19
HL-60 = system: HL-60
OVCAR-3 = system: OVCAR-3
SK-MEL-28 = system: SK-MEL-28
SNB-75 = system: SNB-75
HOP-18 = system: HOP-18
HOP-92 = system: HOP-92
HCT-116 = system: HCT-116
OVCAR-8 = system: OVCAR-8
DMS-114 = system: DMS-114
SF-539 = system: SF-539
SF-268 = system: SF-268
HT-29 = system: HT-29
COLO 205 = system: COLO 205
SK-MEL-2 = system: SK-MEL-2
NCI-H23 = system: NCI-H23
SNB-78 = system: SNB-78
HCC 2998 = system: HCC 2998
LOX IMVI = system: LOX IMVI
M19-MEL = system: M19-MEL
UO-31 = system: UO-31
SW-620 = system: SW-620
Malme-3M = system: Malme-3M
NCI-H226 = system: NCI-H226
A498 = system: A498
MOLT-4 = system: MOLT-4
A549 = system: A549
CAKI-1 = system: CAKI-1
HOP-62 = system: HOP-62
ACHN = system: ACHN
HCT-15 = system: HCT-15
786-0 = system: 786-0
UACC-62 = system: UACC-62
IGROV-1 = system: IGROV-1
DLD-1 = system: DLD-1
TK-10 = system: TK-10
OVCAR-5 = system: OVCAR-5
CCRF-CEM = system: CCRF-CEM
RPMI-8226 = system: RPMI-8226
SN12C = system: SN12C
SK-OV-3 = system: SK-OV-3
RXF 393 = system: RXF 393
DMS-273 = system: DMS-273
U-251 = system: U-251
KM-20L2 = system: KM-20L2
SK-MEL-5 = system: SK-MEL-5
OVCAR-4 = system: OVCAR-4
EKVX = system: EKVX
RXF 631 = system: RXF 631
UACC-257 = system: UACC-257
LXFL 529 = system: LXFL 529
K562 = system: K562
NCI-H522 = system: NCI-H522
SF-295 = system: SF-295
M14 = system: M14
SR = system: SR
NCI-H460 = system: NCI-H460

With `CCOc1ccc(NCC2CC/C(=C\c3ccccc3OC)C2=O)cc1` (centres undefined) the GI50 (KM12) was 2.99 µM (inactive), the GI50 (SNB-19) was 15.9 µM (inactive) and the GI50 (HL-60) was 4.3 µM (inactive). For the same compound, the GI50 (OVCAR-3) was 6.37 µM (inactive), the GI50 (SK-MEL-28) was 11 µM (inactive) and the GI50 (SNB-75) was 14.6 µM (inactive). The GI50 (HOP-18) was 15.3 µM (inactive), the GI50 (HOP-92) was 19.5 µM (inactive) and the GI50 (HCT-116) was 4.33 µM (inactive). For the same compound, the GI50 (OVCAR-8) was 5.18 µM (inactive), the GI50 (DMS-114) was 9.71 µM (inactive) and the GI50 (SF-539) was 10.3 µM (inactive). For the same compound, the GI50 (SF-268) was 7.29 µM (inactive), the GI50 (HT-29) was 3.3 µM (inactive) and the GI50 (COLO 205) was 2.29 µM (inactive). The GI50 (SK-MEL-2) was 20.3 µM (inactive), the GI50 (NCI-H23) was 19.2 µM (inactive) and the GI50 (SNB-78) was 16.5 µM (inactive). For the same compound, the GI50 (HCC 2998) was 12.8 µM (inactive), the GI50 (LOX IMVI) was 6.61 µM (inactive) and the GI50 (M19-MEL) was 8.95 µM (inactive). The GI50 (UO-31) was 13.4 µM (inactive), the GI50 (SW-620) was 4.23 µM (inactive) and the GI50 (Malme-3M) was 14.4 µM (inactive). For the same compound, the GI50 (NCI-H226) was 18.6 µM (inactive), the GI50 (A498) was 19.6 µM (inactive) and the GI50 (MOLT-4) was 2.75 µM (inactive). For the same compound, the GI50 (A549) was 17.9 µM (inactive), the GI50 (CAKI-1) was 12.5 µM (inactive) and the GI50 (HOP-62) was 27.4 µM (inactive). The GI50 (ACHN) was 14.6 µM (inactive), the GI50 (HCT-15) was 3.09 µM and the GI50 (786-0) was 3.01 µM (inactive). For the same compound, the GI50 (UACC-62) was 11.8 µM (inactive), the GI50 (IGROV-1) was 10.6 µM (inactive) and the GI50 (DLD-1) was 3.09 µM (inactive). The GI50 (TK-10) was 13.8 µM (inactive), the GI50 (OVCAR-5) was 18.5 µM (inactive) and the GI50 (CCRF-CEM) was 2.49 µM (inactive). The GI50 (RPMI-8226) was 0.92 µM (active), the GI50 (SN12C) was 7.1 µM (inactive) and the GI50 (SK-OV-3) was 17 µM (inactive). For the same compound, the GI50 (RXF 393) was 8.91 µM (inactive), the GI50 (DMS-273) was 2.58 µM (inactive) and the GI50 (U-251) was 14.3 µM (inactive). The GI50 (KM-20L2) was 14 µM (inactive), the GI50 (SK-MEL-5) was 16.1 µM (inactive) and the GI50 (OVCAR-4) was 6.38 µM (inactive). The GI50 (EKVX) was 17.4 µM (inactive), the GI50 (RXF 631) was 23.8 µM (inactive) and the GI50 (UACC-257) was 7.38 µM (inactive). The GI50 (LXFL 529) was 2.56 µM (inactive), the GI50 (K562) was 2.7 µM (inactive) and the GI50 (NCI-H522) was 1.94 µM (inactive). For the same compound, the GI50 (SF-295) was 18 µM (inactive) and the GI50 (M14) was 3.64 µM (inactive).

In the case of `O=C1C[C@H](c2ccc(O)c(O)c2)Oc2cc(O)cc(O)c21`, the GI50 (KM12) is reported as 78.2 µM (inactive), the GI50 (SNB-19) is reported as > 100 µM (inactive) and the GI50 (HL-60) is reported as 30.6 µM (inactive). For the same compound, the GI50 (OVCAR-3) was > 100 µM (inactive), the GI50 (SR) was 27 µM (inactive) and the GI50 (SK-MEL-28) was 90.6 µM (inactive). For the same compound, the GI50 (SNB-75) was 83.9 µM (inactive), the GI50 (HOP-18) was > 100 µM (inactive) and the GI50 (HOP-92) was 56.8 µM (inactive). The GI50 (HCT-116) was > 100 µM (inactive), the GI50 (OVCAR-8) was > 100 µM (inactive) and the GI50 (DMS-114) was 21.2 µM (inactive). The GI50 (SF-539) was > 100 µM (inactive), the GI50 (SF-268) was 63.5 µM (inactive) and the GI50 (HT-29) was > 100 µM (inactive). The GI50 (COLO 205) was > 100 µM (inactive), the GI50 (SK-MEL-2) was > 100 µM (inactive) and the GI50 (NCI-H23) was > 100 µM (inactive). For the same compound, the GI50 (SNB-78) was > 100 µM (inactive), the GI50 (HCC 2998) was > 100 µM (inactive) and the GI50 (LOX IMVI) was > 100 µM (inactive). For the same compound, the GI50 (M19-MEL) was > 100 µM (inactive), the GI50 (UO-31) was 29.8 µM (inactive) and the GI50 (SW-620) was > 100 µM (inactive). For the same compound, the GI50 (Malme-3M) was 87.1 µM (inactive), the GI50 (NCI-H226) was > 100 µM (inactive) and the GI50 (A498) was > 100 µM (inactive). For the same compound, the GI50 (MOLT-4) was 74.5 µM (inactive), the GI50 (A549) was > 100 µM (inactive) and the GI50 (CAKI-1) was > 100 µM (inactive). For the same compound, the GI50 (HOP-62) was > 100 µM (inactive), the GI50 (ACHN) was 65.8 µM (inactive) and the GI50 (HCT-15) was over 100 µM. The GI50 (786-0) was > 100 µM (inactive), the GI50 (UACC-62) was 61.7 µM (inactive) and the GI50 (IGROV-1) was > 100 µM (inactive). The GI50 (DLD-1) was > 100 µM (inactive), the GI50 (TK-10) was 73.1 µM (inactive) and the GI50 (OVCAR-5) was > 100 µM (inactive). For the same compound, the GI50 (CCRF-CEM) was 31.2 µM (inactive), the GI50 (RPMI-8226) was > 100 µM (inactive) and the GI50 (SN12C) was > 100 µM (inactive). The GI50 (SK-OV-3) was > 100 µM (inactive), the GI50 (RXF 393) was > 100 µM (inactive) and the GI50 (DMS-273) was > 100 µM (inactive). The GI50 (U-251) was 82.4 µM (inactive), the GI50 (KM-20L2) was > 100 µM (inactive) and the GI50 (SK-MEL-5) was > 100 µM (inactive). For the same compound, the GI50 (NCI-H460) was 72.4 µM (inactive), the GI50 (OVCAR-4) was > 100 µM (inactive) and the GI50 (EKVX) was 83.8 µM (inactive). The GI50 (RXF 631) was 64.4 µM (inactive), the GI50 (UACC-257) was > 100 µM (inactive) and the GI50 (LXFL 529) was > 100 µM (inactive). For the same compound, the GI50 (K562) was > 100 µM (inactive), the GI50 (NCI-H522) was 11.6 µM (inactive) and the GI50 (SF-295) was > 100 µM (inactive). For the same compound, the GI50 (M14) was > 100 µM (inactive).
